The source of these data is patent US7544707B2, “Bicyclic derivatives as PPAR modulators” (Eli Lilly and Company, priority 2003, dated 2009).

Broadly, the melting point is the temperature of the solid-liquid transition. For the molecule `Cc1cc(SC(C)(C)c2cccc3cn(-c4ccc(C(F)(F)F)cc4)nc23)ccc1OCC(=O)O` [Example 14, 2-Methyl-4-{1-methyl-1-[2-(4-trifluoromethylphenyl)-2H-indazol-7-yl]ethylsulfanyl}phenoxyacetic Acid], the melting point lay within 118 to 120 °C.
In the case of `Cc1cc(SC(C)(C)c2cccc3cn(-c4ccc(C(F)(F)F)cc4)nc23)ccc1CCC(=O)O` [Example 15, 3-(2-Methyl-4-{1-methyl-1-[2-(4-trifluoromethylphenyl)-2H-indazol-7-yl]ethylsulfanyl}phenyl)propionic Acid] it was 68 to 70 °C; in that of `CCc1cc(SC(C)(C)c2cccc3cn(-c4ccc(C(F)(F)F)cc4)nc23)ccc1OCC(=O)O` [Example 16, 2-Ethyl-4-{1-methyl-1-[2-(4-trifluoromethylphenyl)-2H-indazol-7-yl]ethylsulfanyl}phenoxyacetic Acid], 114 to 116 °C; in that of `CC(C)(Sc1ccc2c(CC(=O)O)csc2c1)c1cccc2cn(-c3ccc(C(F)(F)F)cc3)nc12` [Example 17, 6-{1-Methyl-1-[2-(4-trifluoromethylphenyl)-2H-indazol-7-yl]ethylsulfanyl}benzo[b]thiophen-3-ylacetic Acid], 120 to 122 °C.
`Cc1cc(SCc2ccc3cn(-c4ccc(C(F)(F)F)cc4)nc3c2)ccc1OCC(=O)O` [Example 19, 2-Methyl-4-[2-(4-trifluoromethylphenyl)-2H-indazol-6-ylmethylsulfanyl]phenoxyacetic Acid] gave a melting point of 142 to 144 °C.
In the case of `Cc1cc(SCc2ccc3cn(-c4ccc(C(F)(F)F)cc4)nc3c2)ccc1CCC(=O)O` [Example 20, 3-{2-Methyl-4-[2-(4-trifluoromethylphenyl)-2H-indazol-6-ylmethylsulfanyl]phenyl}propionic Acid] it was 130 to 132 °C.
For `CCc1cc(SCc2ccc3cn(-c4ccc(C(F)(F)F)cc4)nc3c2)ccc1OCC(=O)O` [Example 21, 2-Ethyl-4-[2-(4-trifluoromethylphenyl)-2H-indazol-6-ylmethylsulfanyl]phenoxyacetic Acid], the melting point lay within 119 to 121 °C.
In the case of `CCc1cc(OCc2ccc3cn(-c4ccc(C(F)(F)F)cc4)nc3c2)ccc1CCC(=O)O` [Example 22, 3-{2-Ethyl-4-[2-(4-trifluoromethylphenyl)-2H-indazol-6-ylmethoxy]phenyl}propionic Acid] it was 190 to 192 °C.
In the case of `O=C(O)Cc1csc2cc(SCc3ccc4cn(-c5ccc(C(F)(F)F)cc5)nc4c3)ccc12` [Example 23, 6-[2-(4-Trifluoromethylphenyl)-2H-indazol-6-ylmethylsulfanyl]benzo[b]thiophen-3ylacetic Acid] it was 194 to 196 °C; in that of `Cc1cc(OCc2ccc3cn(-c4ccc(C(F)(F)F)cc4)nc3c2)ccc1CCC(=O)O` [Example 24, 3-{2-Methyl-4-[2-(4-trifluoromethylphenyl)-2H-indazol-6-ylmethoxy]phenyl}propionic Acid], 181 to 183 °C; in that of `O=C(O)Cc1csc2cc(OCc3ccc4cn(-c5ccc(C(F)(F)F)cc5)nc4c3)ccc12` [Example 25, {6-[2-(4-Trifluoromethylphenyl)-2H-indazol-6-ylmethoxy]benzo[b]thiophen-3-yl}acetic Acid], 240 to 242 °C.
In the case of `Cc1cc(SCc2cccc3nn(-c4ccc(C(F)(F)F)cc4)cc23)ccc1OCC(=O)O` [Example 26, 2-Methyl-4-[2-(4-trifluoromethylphenyl)-2H-indazol-4-ylmethylsulfanyl]phenoxyacetic Acid] it was 105 to 108 °C; in that of `CCc1cc(SCc2cccc3nn(-c4ccc(C(F)(F)F)cc4)cc23)ccc1OCC(=O)O` [Example 27, 2-Ethyl-4-[2-(4-trifluoromethylphenyl)-2H-indazol-4-ylmethylsufanyl]phenoxyacetic Acid], 65 to 70 °C.
Regarding `Cc1cc(SCc2cccc3nn(-c4ccc(C(F)(F)F)cc4)cc23)ccc1CCC(=O)O` [Example 28, 3-{2-Methyl-4-[2-(4-trifluoromethylphenyl)-2H-indazol-4-ylmethylsulfanyl]phenyl}propionic Acid], the melting point is 55 to 59 °C.
In the case of `O=C(O)Cc1csc2cc(SCc3cccc4nn(-c5ccc(C(F)(F)F)cc5)cc34)ccc12` [Example 29, 6-[2-(4-Trifluoromethylphenyl)-2H-indazol-4-ylmethylsulfanyl]benzo[b]thiophen-3-ylacetic Acid] it was 183 to 185 °C.
To `Cc1cc(SCc2cccc3c2cnn3-c2ccc(C(F)(F)F)cc2)ccc1OCC(=O)O` [Example 30, 2-Methyl-4-[1-(4-trifluoromethylphenyl)-1H-indazol-4-ylmethylsulfanyl]phenoxyacetic Acid] belongs 132 to 134 °C; to `CCc1cc(SCc2cccc3c2cnn3-c2ccc(C(F)(F)F)cc2)ccc1OCC(=O)O` [Example 31, 2-Ethyl-4-[1-(4-trifluoromethylphenyl)-1H-indazol-4-ylmethylsulfanyl]phenoxyacetic Acid], 122 to 124 °C; to `Cc1cc(SCc2cccc3c2cnn3-c2ccc(C(F)(F)F)cc2)ccc1CCC(=O)O` [Example 32, 3-{2-Methyl-4-[1-(4-trifluoromethylphenyl)-1H-indazol-4-ylmethylsulfanyl]phenyl}propionic Acid], 113 to 115 °C.
In the case of `Cc1cc(SCc2cccc3cnn(-c4ccc(C(F)(F)F)cc4)c23)ccc1CCC(=O)O` [Example 33, 3-{2-Methyl-4-[1-(4-trifluoromethylphenyl)-1H-indazol-7-ylmethylsulfanyl]phenyl}propionic Acid] it was 120 to 123 °C; in that of `Cc1cc(SCc2cccc3cnn(-c4ccc(C(F)(F)F)cc4)c23)ccc1OCC(=O)O` [Example 34, 2-Methyl-4-[1-(4-trifluoromethylphenyl)-1H-indazol-7-ylmethylsulfanyl]phenoxyacetic Acid], 118 to 121 °C.
For the molecule `Cc1cc(SCc2cccc3cn(-c4ccc(C(F)(F)F)cc4)nc23)ccc1OC(C)(C)C(=O)O` [Example 35, 2-Methyl-2-{2-methyl-4-[2-(4-trifluoromethylphenyl)-2H-indazol-7-ylmethylsulfanyl]phenoxy}propionic Acid], the melting point was 135 to 137 °C.
In the case of `CC(C)(Oc1ccc(SCc2cccc3cn(-c4ccc(C(F)(F)F)cc4)nc23)cc1)C(=O)O` [Example 36, 2-Methyl-2-{4-[2-(4-trifluoromethylphenyl)-2H-indazol-7-ylmethylsulfanyl]phenoxy}propionic Acid] it was 140 to 142 °C; in that of `Cc1cc(OCc2cccc3cn(-c4ccc(C(F)(F)F)cc4)nc23)ccc1OC(C)(C)C(=O)O` [Example 37, 2-Methyl-2-{2-methyl-4-[2-(4-trifluoromethylphenyl)-2H-indazol-7-ylmethoxy]phenoxy}propionic Acid], 165 to 167 °C; in that of `CC(C)(Sc1ccc(OCc2cccc3cn(-c4ccc(C(F)(F)F)cc4)nc23)cc1)C(=O)O` [Example 38, 2-Methyl-2-{4-[2-(4-trifluoromethylphenyl)-2H-indazol-7-ylmethoxy]phenylsulfanyl}propionic Acid], 175 to 177 °C.
